Entries after “also recorded” stand apart in the source; their conditions may differ. Where two headings read alike, the source gives them in different places.
Assays:
[1] = Fe(III); background; cited from earlier work
[2] = Promoting excretion of 238Pu(IV) in mice by injected ligands (Table 3); assay type: in vivo; settings: 30 μmol/kg i.p.
From the text: (§1) Animal studies were completed using methods detailed in Radiation Protection Dosimetry, 1994, 53, 305: P. W. Durbin et al., "In Vivo Chelation of Am(III), Pu(IV), Np(V) and U(VI) in Mice by TREN-(Me-3,2-HOPO)"; Radiation Protection Dosimetry, 1989, 17, 351: P. W. Durbin et al., "Removal of ^238 Pu(IV) from Mice by Polycatechoylate, -Hydroxamate or -Hydroxypyridinonate Ligands"; Radiation Research, 1984, 99, 85: P. W. Durbin et al., "Specific Sequestering Agents for the Actinides . . . "; Radiation Research, 1984, 99, 106: P. W. Durbin et al., "Removal of Pu and Am from Beagles and Mice . . . "; Radiation Research, 1980, 81, 170: R. D. Lloyd et al., and P. W. Durbin et al., "Specific Sequestering Agents for the Actinides . . . ". The foregoing articles are hereby incorporated by reference.
(§2) Radionuclides used in the animal studies came from a variety of sources. The ^238 Pu(IV) citrate and ^241 Am(III) citrate solutions were prepared for animal injection by 8- to 10-fold dilution with 0.14M NaC1 (pH 4) of concentrated stock solutions (0.08M sodium citrate buffer) that had been held in frozen storage at Lawrence Berkeley Laboratory (hereinafter LBL) for several years. [The ^238 Pu(IV) was originally obtained from D. R. Atherton at the University of Utah Radiobiology Laboratory, Salt Lake City. The ^241 Am(III) solution had been obtained many years earlier from the LBL Actinide Chemistry group.]
The novel chelating agents of the present invention were tested for their effectiveness in promoting excretion of ^238 Pu(IV) in mice by injected ligands as follows. Mice, in groups of five, each received an intravenous injection of 1850 Bq^238 Pu(IV) in 0.2 mL of citrate buffer. One hour later, 30 μmol/kg of ligand was injected intraperitoneally in 0.5 mL of saline. The mice were killed 24 hours after the Pu injection, frozen, and dissected after partial thawing. The ^238 Pu in skeleton, soft tissues, and separated excreta was determined by counting the ^234 U L x-rays. […]

[3] = assay type: in vivo, mice; settings: for toxicity / mortality (in words): mouse, in vivo; for body weight / kidney weight / plasma urea N: mean ± SD
Description: The test of acute toxicity of these novel ligands was carried out as follows. […] The ligand was dissolved in 0.5 to 1.0 ml of saline at pH 7 to 8. After a period of observation, the mice were killed, selected tissues were removed and fixed for histopathological examination,and unusual findings at autopsy were recorded.

[4] = Gd3+ complex stability in aqueous solution; assay type: binding
[5] = Promoting excretion of 237Np(V) in mice by injected ligands (Table 5); assay type: in vivo; settings: 30 μmol/kg i.p. at 3 to 5 min after actinide i.v.
From the text: as §1
The ^237 Np(V) was obtained from J. Bucher of the LBL Actinide Chemistry group as NpO2 Cl in 0.1M HCl. It was diluted to the desired radioactivity concentration in 0.14M NaCl and the pH was adjusted to about 4.5 with NaOH just before use.
(§3) One of the novel chelating agents of the present invention, TREN-Me-3,2-HOPO, was also tested for effectiveness in promoting excretion of ^241 AM(III), ^237 Np(V), and ^232 U(VI) by injection into mice, as follows: Mice, in groups of five, each received an intravenous injection of (a) 1100 Bq of ^241 Am(III) in 0.2 mL of citrate buffer, (b) 150 Bq of ^232 UO2 Cl2 plus 3.6 mg of ^235 UO2 Cl2 in 0.2 mL of saline, or (c) 200 Bq of ^237 NpO2 Cl ([…] of ^237 NPO2 Cl) in 0.2 mL of saline. Three to five minutes later, 30 μmol/kg of TREN-Me-3,2-HOPO was injected intraperitoneally in 0.5 mL of saline. The mice were killed 24 hours after the actinide injection, frozen, and dissected after partial thawing. The skeleton, soft tissues, and separated excreta were radioanalyzed by counting the ^241 Am gamma rays, or the alpha particles emitted by ^237 Np or ^232 U (and its ingrowing daughters). Removal of those actinides from mice by injected TREN-Me-3,2-HOPO is summarized in Table 5, which also includes data for mice similarly treated with CaNa3 -DTPA and for actinide-injected controls. […] The structure of Am(III)-TREN-Me-3,2-HOPO is considered to resemble that of the Gd(III) complexes (see Example 20). Complexation of the fraction of Np(V) that is reduced in vivo to Np(IV) is considered to resemble that of Pu(IV). Complexation of U(VI) is considered to take place through binding to UO2^2+.
(§4) ^a Ligands (30 μmol/kg) i.p. at 3 to 5 min after actinide i.v.;

[6] = 30 μmol/kg i.p. at 1 h; reported previously (footnote e); cited from earlier work
[7] = Promoting excretion of U(VI) in mice by injected ligands (Table 5); assay type: in vivo; settings: 30 μmol/kg i.p. at 3 to 5 min after actinide i.v.
From the text: as §1
The ^232 U was obtained from the Isotope Products Laboratory, Burbank, Calif., and ^234,235 U was obtained as U metal from long-held LBL storage. The two U sources were combined and dissolved in 6N HNO3, dried, and redissolved in 0.1N HCl. The daughter radioactivities were removed by elution from a Dowex-50X4 column (22 cm length, 0.7 cm diameter, 1.5 mL min^-1 flow rate) with 3.2N HCl. The U fractions (previously identified by a trial run with ^234,235 U alone) were combined, dried, and redissolved in 0.14M NaCl at pH 5.5.
as §3, §4

[8] = Promoting excretion of 241Am(III) in mice by injected ligands (Table 5); assay type: in vivo; settings: 30 μmol/kg i.p. at 3 to 5 min after actinide i.v.
From the text: as §1, §2, §3, §4

[9] = protocol I: 100 μmol/kg × 10 daily i.p., 11 d
[10] = protocol I: 100 μmol/kg × 10 daily i.p., 11 d, of 5 mice
[11] = protocol I: 100 μmol/kg × 10 daily i.p., 21 d
[12] = protocol I: 100 μmol/kg × 10 daily i.p., 21 d, of 5 mice
[13] = protocol II: 500 μmol/kg × 2 in 8 h i.p., 11 d
[14] = protocol II: 500 μmol/kg × 2 in 8 h i.p., 11 d, of 5 (5-LI) or 10 (5-LI-O) mice

## O=C(N[C@H]1COC(=O)[C@@H](NC(=O)c2cccc(O)c2O)COC(=O)[C@@H](NC(=O)c2cccc(O)c2O)COC1=O)c1cccc(O)c1O [enterobactin]
[1]
  formation constant Kf: ≈ 10^49
  pM: 35.5

## Cn1ccc(C(=O)NCCCCCNC(=O)c2ccn(C)c(=O)c2O)c(O)c1=O [5-LI-Me-3,2-HOPO, 1,5-bis[(3-hydroxy-1-methyl-2-oxo-1,2-dihydro-pyridin-4-yl)carboxamido]pentane]
[2]
  effectiveness of Pu removal, injected (in words): as effective or more effective than the hexadentate and octadentate chelating agents
[3]
  toxicity / mortality (in words): low toxicity
[3]; [9]
  body weight: 102 ± 5 percent control
  kidney weight: 109 ± 14 percent control
  plasma urea N: 89 ± 1 percent control
[3]; [10]
  no. of survivors: 5
[3]; [11]
  body weight: 102 ± 5 percent control
  kidney weight: 100 ± 4 percent control
  plasma urea N: 101 ± 2 percent control
[3]; [12]
  no. of survivors: 5
[3]; [13]
  body weight: 99 ± 3 percent control
  kidney weight: 109 ± 9 percent control
  plasma urea N: 98 ± 18 percent control
[3]; [14]
  no. of survivors: 5

## Gadolinium (III) Ion Complex with N,N,N,-Tris[(3-hydroxy-1-methyl-2-oxo-1,2-dihydropyridin-4-yl)carboxamidoethyl]-amine [Gd(III)-TREN-3,2-HOPO complex]
[4]
  pM value for Gd^3+: 19
[4]; aqueous solution
  formation constant log β110: 20.3
  stability of the complex (in words): very stable in aqueous solution; also recorded: substantially more stable than any of the Gd^3+ MRI agents in current clinical use

## Cn1ccc(C(=O)NCCOCCNC(=O)c2ccn(C)c(=O)c2O)c(O)c1=O [5-LI-O-Me-3,2-HOPO, 1,5-bis[(3-hydroxy-1-methyl-2-oxo-1,2-dihydro-pyridin-4-yl)carboxamido]-3-oxypentane]
[2]
  effectiveness of Pu removal, injected (in words): as effective or more effective than the hexadentate and octadentate chelating agents
[3]
  toxicity / mortality (in words): low toxicity
[3]; [9]
  body weight: 103 ± 5 percent control
  kidney weight: 100 ± 19 percent control
  plasma urea N: 83 ± 5 percent control
[3]; [10]
  no. of survivors: 5
[3]; [11]
  body weight: 101 ± 5 percent control
  kidney weight: 111 ± 5 percent control
  plasma urea N: 86 ± 18 percent control
[3]; [12]
  no. of survivors: 5
[3]; [13]
  body weight: 100 ± 2 percent control
  kidney weight: 108 ± 10 percent control
  plasma urea N: 77 ± 10 percent control
[3]; [14]
  no. of survivors: 110

## O=C(O)CN(CCN(CC(=O)O)CC(=O)O)CCN(CC(=O)O)CC(=O)O [CaNa3 -DTPA, reference compound]
[5]
  Np(V) in liver at 24 h: 14 ± 5.7% of injected actinide
  Np(V) in skeleton at 24 h: 40 ± 4.4% of injected actinide
  Np(V) in soft tissue at 24 h: 3.5 ± 0.9% of injected actinide
  Np(V) in whole body at 24 h: 58 ± 8.0% of injected actinide
[5]; pooled
  Np(V) excreta: feces and GI contents: 1.5% of injected actinide
  Np(V) excreta: urine 0-24 h: 40% of injected actinide
  Np(V) in kidneys at 24 h: 1.3% of injected actinide
[6]
  238Pu excreta: feces and GI contents: 5.1% of injected ^238 Pu
  238Pu excreta: urine 0-24 h: 61% of injected ^238 Pu
  238Pu in kidneys at 24 h: 1.1% of injected ^238 Pu
  238Pu in liver at 24 h: 17 ± 4.0% of injected ^238 Pu
  238Pu in skeleton at 24 h: 12 ± 2.3% of injected ^238 Pu
  238Pu in soft tissue at 24 h: 3.5 ± 1.6% of injected ^238 Pu
  238Pu in whole body at 24 h: 33 ± 6.6% of injected ^238 Pu
[7]
  U(VI) in kidneys at 24 h: 17 ± 2.8% of injected actinide
  U(VI) in liver at 24 h: 1.0% of injected actinide
  U(VI) in skeleton at 24 h: 19 ± 3.0% of injected actinide
  U(VI) in whole body at 24 h: 38 ± 0.7% of injected actinide
[7]; combined excreta (footnote f)
  U(VI) combined excreta: 62% of injected actinide
[8]
  Am(III) in liver at 24 h: 13 ± 1.5% of injected actinide
  Am(III) in skeleton at 24 h: 8.5 ± 0.9% of injected actinide
  Am(III) in soft tissue at 24 h: 1.9 ± 0.3% of injected actinide
  Am(III) in whole body at 24 h: 24 ± 1.3% of injected actinide
[8]; pooled
  Am(III) excreta: feces and GI contents: 8.0% of injected actinide
  Am(III) excreta: urine 0-24 h: 68% of injected actinide
  Am(III) in kidneys at 24 h: 0.4% of injected actinide

## Cn1ccc(C(=O)NCCCCNC(=O)c2ccn(C)c(=O)c2O)c(O)c1=O [4-LI-Me-3,2-HOPO, 1,4-bis[(3-hydroxy-1-methyl-2-oxo-1,2-dihydro-pyridin-4-yl)carboxamido]butane]
[2]
  effectiveness of Pu removal, injected (in words): as effective or more effective than the hexadentate and octadentate chelating agents
[3]; protocol IB: 100 μmol/kg, 5 d
  body weight: 85 ± 8 percent control
  kidney weight: 190 ± 63 percent control
  plasma urea N: > 2000 percent control
[3]; protocol IB: 100 μmol/kg, 5 d, of 3 mice
  no. of survivors: 0

## O=C(NCCCCN(CCCNC(=O)c1cccc(=O)n1O)C(=O)c1cccc(=O)n1O)c1cccc(=O)n1O [3,4-LI(1,2-HOPO)]
[6]
  238Pu excreta: feces and GI contents: 58% of injected ^238 Pu
  238Pu excreta: urine 0-24 h: 7.9% of injected ^238 Pu
  238Pu in kidneys at 24 h: 0.6% of injected ^238 Pu
  238Pu in liver at 24 h: 18 ± 4.8% of injected ^238 Pu
  238Pu in skeleton at 24 h: 9.9 ± 3.6% of injected ^238 Pu
  238Pu in soft tissue at 24 h: 5.8 ± 1.3% of injected ^238 Pu
  238Pu in whole body at 24 h: 34 ± 9.2% of injected ^238 Pu

— patent US5892029A, “3-hydroxy-2(1H)-pyridinone chelating agents” (priority 1997, dated 1999)
